Like-named read-outs stand apart in the source and are kept apart here. Bounds are passed on as bounds.

The text below walks through data of US20130045162A1, “DELIVERY SYSTEM FOR SPECIFICALLY TARGETING CANCER CELLS AND METHOD OF USE THEREOF” (MOREHOUSE SCHOOL OF MEDICINE, priority 2011, published 2013).

The nature of data set [1]: Example 7 systemic toxicities in B6 and B6.Xpc−/− mice. As to conditions: B6.Xpc−/− mice compared to B6 mice.
Experimental: (§3) To mimic advanced (bone metastasis) PCa in ERCC1 variant individuals, B6 and B6.Xpc^−/− mice are injected in left tibia PTEN-CaP2-luc cells. Tumor progression is followed non-invasively in non-castrated mice using our Caliper/Xenogen IVIS-100 imaging system. After tumors emit luminescence >10^5 photons/sec/cm^2, one set of mice is castrated (i.e., to mimic androgen ablation) and the second set is not. […] Mice are imaged every week to monitor tumor progression/regression. When tumors in negative control (saline vehicle treated only) exceed 10^8 photons/sec/cm^2, groups in each set are sacrificed. […] The number and activity of peripheral, lymph node and tumor-associated lymphocytes are isolated and CD4^+ T cells affinity purified and intracellularly and surface stained for flow cytometry analysis of Th1, Th2, Th17, and cell frequency as before. Specifically, the proliferation of purified T lymphocytes after CD3 plus CD28 stimulation with or without FR4 to access Th1/Th2 cell proliferation as before. Along with weekly bioluminescence imaging, blood chemistry and peripherial blood leukocyte subpopulations are monitored to evaluate tumor- or drug-associated toxicities that may be associated with Xpc deficiency.
Data set [2] has as its system PC3-luc and PTEN-CaP2-luc tumor. The data set is described as follows: Example 5 intratibia PC3-luc / PTEN-CaP2-luc tumor model. The format is in vivo, mice. The settings on record: intravenous. As to the method:
To mimic advanced (bone metastasis) PCa, NIH-III or B6 male mice receiving vitamin D-deficient or normal diets are injected in left tibia with PC3-luc or PTEN-CaP2-luc cells, respectively. […] Microscopic and morphometric analysis determine the significance of treatments on prostate tumor apoptosis and change in the frequency or survival of PCa cells. […] Blood samples are used to determine serum docetaxel and oxaliplatin PK/PD by mass spectrometry.
NIH-III and B6 male mice are purchased from Jackson Laboratories. Animals are housed and maintained in microbial isolator cages under conventional housing conditions at the Morehouse School of Medicine's animal facility. The guidelines proposed by the committee for the Care of Laboratory Animal Resources Commission of Life Sciences—National Research Council are followed to minimize animal pain and distress. Eight to ten week old mice are injected in the right tibia with 10^6 PTEN-P2-luc (matched benign), PTEN-CaP2-luc (prostate adenocarcinoma), or PC3-luc cells. To assess the affects of hormone ablation on cytotoxic drug or PBM nanoparticle susceptibility, another group of mice is castrated after prostate tumor detection.

The subject of the next data set is PTEN-CaP2-luc tumor. The data set is described as follows: Example 7 PTEN-CaP2-luc tumor in B6 and B6.Xpc−/− mice. The format is in vivo.
The subject of data set [3] is spontaneous PCa in PBcre4+cPten−/− luc+ and PBcre4+cPten−/− luc+ cav1+ mice. The data set is described as follows: Example 6 spontaneous prostate tumor model (cPten−/− luc mice). The format is in vivo. The settings on record: for metastatic lesions: alone or encapsulated. The text has this:
PBM nanoparticle effects on spontaneous tumor and Treg cell development are examined using cPten^−/−PBcre4^+luc^+ or cPten^−/−PBcre4^+luc^+cav1^+ (castrated or noncastrated) mice. Pten^floxed/floxedluc^+ without the Cre gene, which serve as negative tumor controls, and male cPten^−/− PBcre4^+luc^+ or cPten^−/−PBcre4^+luc^+cav1^+ (castrated or noncastrated) mice are imaged every week during PCa development from murine PIN (6 weeks of age), invasive adenocarcinoma (>9 weeks of age), and metastatic lymph node, lung and possibly bone at 12 weeks of age. After 9 weeks of age, tumors are allowed to progress to a net increase of 10^5 photons/sec/cm^2 from luminescence detected in mice <9 weeks of age. A set of mice is castrated to study androgen-independent hormone refractory PCa and another set is not castrated to further study the progression of PTEN-mediated PCa with androgens. […] Microscopic and morphometric analysis determine the significance of treatments on prostate tumor apoptosis and change in the frequency or survival of secretory luminal, basal, neuroendocrine and proliferating PCa cells. […] The proliferation of purified T lymphocytes is measured after CD3 plus CD28 stimulation (i.e., incubation on antibody-coated plates) with or without FR4 to assess Th1/Th2 cell proliferation. […]
Despite being homozygous for Pten gene deletion, the individual PBcre4^+ cPten^−/− luc^+ and PBcre4^+ cPten^−/− luc^+ cav1^+ mice will have different copies of active luciferase (L) gene. The copy number of trans L genes are determined and confirmed by multiplex polymerase chain reaction amplification and Southern blot analysis to insure the number of L genes responsible for luciferase will not change from experiment to experiment. […]

Details of data set [4]: species or system mice. The settings on record: mouse, in vivo.
Experimental: Serum is collected at sacrifice and urea N2, creatine, P, Ca, Na, K, Cl, bicarbonate, alkaline phosphatase, alanine transaminase (ALT), aspartate aminotransferase (AST), creatine kinase (CK), cholesterol, total bilirubin, total protein, albumin, globulin, albumin/globulin ratio, glucose and amylase are measured.
The subject of data set [5] is DU145 (prostate cancer cell line). Put plainly: DU145 apoptosis, ImageStream (TUNEL/DRAQ5). The format is cell-based. As to conditions: 20 uM, 1 hour, wash, 48 hours. As to the method:
(§1) DU145 (prostate cancer cell line) and PrEC (primary prostatic epithelial cells) cells were treated with cisplatin solution or cisplatin-containing and cancer cell-binding peptides (I, II, III, and IV)- or folate-conjugated polycaprolactone-coated PBM nanoparticles, or uncoated nanoparticles. […] Apoptotic cells were identified using two standard image based features from the IDEAS package: Area and Spot Small Total. Condensed apoptotic nuclei have lower nuclear area value as compared to live cells.

Data set [6] concerns normal prostatic epithelial cells (PrEC and RWPE-1). The data set is described as follows: normal prostatic epithelial cell death in vitro. As to conditions: 20 μM. The format is cell-based.
For data set [7], the system named is normal (primary) breast epithelial cells. The data set is described as follows: normal breast epithelial cell death / apoptosis in culture. The format is cell-based. The settings on record: 20 μM, after 24 hr of culture. The text has this:
(§2) The folate coated PBM nanoparticles are further loaded with docetaxel, carboplatin, or cisplatin. […] However, PBM nanoparticles containing 10× less chemotherapeutic agent were taken up and induced the same level of BrCa cell apoptosis as cisplatin, docetaxel, or carboplatin solution, respectively, but not primary breast epithelial cells. […] Accordingly, the novel PBM nanoparticles of the present application enhance BrCa therapy efficacy, reduce toxicities, and increase breast tumor immunity.

Data set [8] relates to PCa cells (PC3 and PTEN-CaP2). The data set is described as follows: PCa cell death / apoptosis in vitro. The format is cell-based, human; mouse. The settings on record: 20 μM.
Data set [9] relates to BrCa cells (MCF-7, MDA-MB-231, and 4T1). Put plainly: BrCa cell death / apoptosis in culture. The format is cell-based. As to conditions: 20 μM, after 24 hr of culture.
From the text: as §2

Data set [10] concerns MDA-MB-231-Luc xenografts. Put plainly: tumor regression in MDA-MB-231-luc tumor-bearing mice. The format is in vivo. The settings on record: 8 mg/kg/week, intravenous injection.
Data set [11] has as its system PrEC (primary prostatic epithelial cells). The data set is described as follows: PrEC apoptosis, ImageStream (TUNEL/DRAQ5). The format is cell-based. The settings on record: 20 uM, 1 hour, wash, 48 hours. As to the method:
as §1

For the next data set, the system named is PC3-luc tumor. Put plainly: tumor regression in PC3-luc tumor-bearing mice. The settings on record: 8 mg/kg/week, intravenous injection. The format is in vivo.
The conditions of data set [12]: mouse, in vivo.
Experimental: as §3
For data set [13] the following is noted: cited from earlier work.
In another data set the target is FR1 (Homo sapiens, UniProt P15328). As to conditions: read-out: affinity for FR1; cited from earlier work.
In a further data set the target is FR2 (Homo sapiens, UniProt P14207). The settings on record: read-out: affinity for FR2; cited from earlier work.
Setting [14] is: optimal dose 10 mg/kg/week, both B6 and B6.Xpc−/− mice.

FR2, sequence (P14207 17-230): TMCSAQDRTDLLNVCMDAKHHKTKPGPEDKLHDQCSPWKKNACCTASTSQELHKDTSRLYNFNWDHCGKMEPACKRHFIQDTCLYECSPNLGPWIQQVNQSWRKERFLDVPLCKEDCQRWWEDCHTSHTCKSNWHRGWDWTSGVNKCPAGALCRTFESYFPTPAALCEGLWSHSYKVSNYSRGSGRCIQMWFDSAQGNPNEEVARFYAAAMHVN
FR1, sequence (P15328 25-234): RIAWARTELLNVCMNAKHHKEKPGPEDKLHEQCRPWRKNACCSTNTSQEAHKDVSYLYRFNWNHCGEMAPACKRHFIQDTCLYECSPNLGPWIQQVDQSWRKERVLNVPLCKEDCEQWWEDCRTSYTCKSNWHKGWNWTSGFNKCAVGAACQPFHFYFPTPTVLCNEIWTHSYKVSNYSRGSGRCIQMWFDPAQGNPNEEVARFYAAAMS

Regarding `O=C1[O][Pt]2([NH][C@@H]3CCCC[C@H]3[NH]2)[O]C1=O` [oxaliplatin], the “toxicities (elevated AST & ALT, hypocalcemia and hypoglycemia)” value in [1] is given as “significantly higher toxicities”. In addition, the tumor regression result in data set [2] (optimal dose 10 mg/kg/week) is “tumor regression”; in data set [2] (suboptimal dose 0.1 mg/kg/week) it was “not suboptimal”; with PTEN-CaP2-luc tumor (setting [14]) it was “tumor regression”; with PTEN-CaP2-luc tumor (suboptimal dose 0.1 mg/kg/week), “not suboptimal”. Moreover, the metastatic lesions result in data set [3] is “fewer metastatic lesions”. Besides, in [3] (mouse, in vivo), the neuroendocrine differentiation entry is recorded as “reduced”.
For `[NH2][Pt]([NH2])([Cl])[Cl]` [Cisplatin solution, cisplatin], in data set [4], the Albumin came out at 4.2 ± 0.6 g/dL, the Albumin/Globulin ratio is given as 4.22 ± 2.41, the “Alk Phos” value is recorded as 160 ± 34.64 U/L and the Amylase is 2062 ± 371.44 U/L. Besides, in data set [4], the Bicarbonate was 10.2 ± 1.04 mmol/fL, the CK was 3975 ± 45 U/L, the Calcium was 1.2 ± 0 mg/dL and the Cholestrol amounted to 84 ± 10.39 mg/dL. In [4], this compound registered a Cl of 106 ± 3.46 mEq/l, a Creatinin of 0.8 ± 0.35 mg/dL, a Globulins of 1.2 ± 0.6 g/dL and a Glucose of 52 ± 17.32 mg/dL. For the same compound, in [4], the K is reported as 9.2 ± 012 mEg/l, the Na was 152 ± 3.46 mEq/l, the Phosphorus amounted to 72 ± 0 mg/dL and the “Total Bilirubin” value stood at 0.6 ± 0 mg/dL. In addition, in data set [4], the Total protein was found to be 5 ± 0.35 g/dL and the “Urea N2” value was determined as 36 ± 0 mg/dL. Besides, the “apoptosis of DU145 cells” value in data set [5] is “apoptosis of both DU145 and PrEC cells”. This compound showed a cell death in data set [6] greater than 90%. In data set [7], the cell death is recorded as greater than 90%. For the same compound, in data set [8], the cell death is reported as greater than 90%. The cell death in data set [9] was greater than 90%. Moreover, in data set [10], the tumor regression result is “significant (and similar) tumor regression”. For the same compound, the “apoptosis of PrEC cells” value in [11] was “apoptosis of both DU145 and PrEC cells”. Also, in the data set with PC3-luc tumor, the tumor regression result is given as “significant (and similar) tumor regression”.
In the case of `CC(=O)O[C@@]12CO[C@@H]1C[C@H](O)[C@@]1(C)C(=O)[C@H](O)C3=C(C)[C@@H](OC(=O)[C@H](O)[C@@H](NC(=O)OC(C)(C)C)c4ccccc4)C[C@@](O)([C@@H](OC(=O)c4ccccc4)[C@H]21)C3(C)C` [docetaxel], the tumor regression entry in data set [2] (optimal dose 10 mg/kg/week) is listed as “tumor regression”; in data set [2] (suboptimal dose 0.1 mg/kg/week), “not suboptimal”; in the data set on PTEN-CaP2-luc tumor (setting [14]) it was “tumor regression”; with PTEN-CaP2-luc tumor (suboptimal dose 0.1 mg/kg/week), “not suboptimal”. The “toxicities (elevated AST & ALT, hypocalcemia and hypoglycemia)” value in [12] is reported as “significantly higher toxicities”. For the same compound, the metastatic lesions entry in data set [3] was “fewer metastatic lesions”.
For `COc1cc(/C=C/C(=O)CC(=O)/C=C/c2ccc(O)c(OC)c2)ccc1O` [Free curcumin, diferuloylmethane], in data set [13], the solubility in water entry is listed as “completely insoluble in water”.
On to `CN1c2c(nc(N)[nH]c2=O)NC[C@@H]1CNc1ccc(C(=O)N[C@@H](CCC(=O)O)C(=O)O)cc1` [6S 5-methyltetrahydrofolate], for which the Kd is 55 nM on FR1 and 1 nM on FR2.
